Key:
[1] = system: primary human chondrocytes; experiment: WST-1 cell proliferation assay in primary human chondrocytes with IL-1β; format: cell-based; settings: IL-1β 5 ng/mL, concentrations up to 5 mM, n=6
Source text: Normal cartilage tissues. Articular cartilages were harvested from the femoral condyles and the tibial plateaus, which were obtained from autopsy services at the hospital of UVA and approved by the Institutional Review Board. All tissue samples were graded according to a modified Mankin scale, and only cartilages without evidence of osteoarthritis were used as a source of chondrocytes. The interval between death and the time the cartilages were harvested from these knee joints in the laboratory were at least 24 h and ranged up to 96 h. Cartilage shavings were harvested at the operation room and placed in tissue culture medium (DMEM, 10% FBS, penicillin, streptomycin), and shipped to the laboratory at 4° C. The tissues were processed in the laboratory within 24 h after harvest.
Chondrocytes were isolated from the cartilage by collagenase digestion and maintained in continuous monolayer cultures in DMEM containing 10% FBS. Cell viability after chondrocyte isolation by collagenase digestion of normal cartilage was >95%, determined by the typan blue stain (Sigma-Aldrich). Experiments were performed with primary or first passage cells. When necessary, trypsin will be used for cell passage.
Human chondrocytes were seeded in a 96-well plate (5×10^4/well) and incubated with culture medium overnight. […]

[2] = system: TNFa; experiment: Serum TNFa ELISA in LPS-induced systemic inflammation in mice; format: in vivo, mouse; settings: LPS 10 mg/kg I.P., compound 300 mg/kg I.V.
Experimental: (§1) Male C57BL6/J mice (8 to 10-week-old, 20-25 g) purchased from Charles River were used in this study. Mice were kept in the animal facility of the School of Medicine, University of Virginia (UVa). All experimental procedures were approved by the Ethics Committee on Animal Research of Medical School, UVa and are in accordance with the Guidelines of the National Council for Animal Experimentation Control (CONCEA).
(§2) Moderate endotoxemia by LPS was induced with a single dose (10 mg/Kg, i.p.) of LPS (Escherichia coli 0111:B4, Sigma Chemical Co., St. Louis, MO, United States), 30 min after intravenous injection of NAG or NDX1 or NDX2 or the vehicle (saline). Two doses (200 mg/kg body weight and 300 mg/kg body weight) were tested for NAG, NDX1 and NDX2. Animals without any treatment were used to obtain the baseline data. Six hours after LPS treatment, inflammation assays were performed as described below. A total of 40 animals were randomly divided into 5 groups (8 mice/group): non-treatment (NT); 10 mg/Kg LPS plus saline (LPS); 10 mg/Kg LPS plus NAG (LPS+NAG); 10 mg/Kg LPS plus NDX1 (LPS+NDX1); and 10 mg/Kg LPS plus NDX2 (LPS+NDX2). The experiment was duplicated.
(§3) TNFa and IL-6 concentrations in the serum were determined using enzyme-linked immunosorbent assay (ELISA) according to the manufacturer's instructions. […] The resultant solutions were read at 450 nm on a microplate reader.

[3] = system: IL-6; experiment: Serum IL-6 ELISA in LPS-induced systemic inflammation in mice; format: in vivo, mouse; settings: LPS 10 mg/kg I.P., compound 300 mg/kg I.V.
Experimental: as §1, §2, §3

[4] = system: leukocytes migration to the peritoneal cavity; experiment: Leukocyte migration to the peritoneal cavity in LPS-induced systemic inflammation in mice; format: in vivo, mouse; settings: LPS 10 mg/kg I.P., compound 200 or 300 mg/kg I.V., vs LPS alone
Experimental: as §1, §2
Peritoneal cells were collected by lavage with ice-cold Dulbecco's modified Eagle's medium (DMEM, Gibco BRL, Gaithersburg, MD). […]

[5] = system: IL1β; experiment: RT-PCR of IL1β mRNA in LPS-activated RAW264.7 macrophages; format: cell-based, mouse; settings: LPS 100 ng/mL; NDX1 0.1 mM and 0.5 mM, NAG 0.5 mM, NDX2 0.5 mM; n=4
Experimental: Mouse RAW264.7 macrophage cell line (ATCC; Manassas, VA, USA) was maintained in DMEM culture medium containing 10% FBS and 1% antibiotic mix. For cell treatment, the test drugs at different doses were added to the culture 0.5 h prior to addition of 100 ng/mL LPS (Sigma-Aldrich Co., St Louis, MO, USA) and then cells were co-treated with LPS for 24 hours.
Total RNA was purified using an RNeasy kit (QIAGEN Sciences, Valencia, CA) according to the protocol provided by the manufacturer, and was stored at −80° C. Synthesis of cDNA from total RNA and the quantitative PCR were carried out by using the iScript™ cDNA synthesis kit and the iQ™ SYBR Green Supermix kit (Bio-Rad Laboratories, Hercules, CA), respectively. The target genes included iNOS, IL-6 and IL-1β. Gene of 18s ribosomal RNA was used as an internal control. The threshold cycle (CT) value was calculated from amplification plots. Data was analyzed using the 2-ΔΔCT method with 18s rRNA serving as the reference. Gene expression was normalized to the control group in each experiment and represented as fold of change. […]

## CC(=O)N[C@H]1C(O)O[C@H](CO)[C@@H](O)[C@@H]1O (some centres unmarked) [NAG, N-acetyl glucosamine]
[1]
  effect on cell growth / toxicity (WST-1): could prevent inhibition of cell proliferation induced by IL-1β
[2]
  decrease of serum level of TNFa: significantly decrease serum levels
[3]
  decrease of serum level of IL-6: significantly decrease serum levels
[4]
  decrease of leukocytes migration to the peritoneal cavity (WST-1 test or DAPI staining): neither NAG nor NDX2 did
[5]
  inhibition of IL1β mRNA expression (RT-PCR): could inhibit IL1β

From patent publication US20260191887A1, “METHODS OF TREATING INFLAMMATION” (THERAPEUTIKOS, INC., priority 2022, published 2026)
